Source: ChEMBL document CHEMBL4507272 (2021)

Key:
[1] = target: Serine/threonine-protein kinase mTOR (Homo sapiens) (UniProt P42345); conditions: Compound concentration 1000.0 nM
[2] = tested on: Phosphatidylinositol 4,5-bisphosphate 3-kinase catalytic subunit alpha isoform (Homo sapiens), P42336 [Q546K]; conditions: Compound concentration 1000.0 nM
[3] = target: Hormonally up-regulated neu tumor-associated kinase (Homo sapiens) (UniProt P57058); conditions: Compound concentration 1000.0 nM
[4] = target: Ephrin type-B receptor 6 (Homo sapiens) (UniProt O15197); conditions: Compound concentration 1000.0 nM
[5] = target: Calcium/calmodulin-dependent protein kinase type 1G (Homo sapiens) (UniProt Q96NX5); conditions: Compound concentration 1000.0 nM
[6] = target: Ankyrin repeat and protein kinase domain-containing protein 1 (Homo sapiens) (UniProt Q8NFD2); conditions: Compound concentration 1000.0 nM
[7] = tested on: Hepatocyte growth factor receptor (Homo sapiens), P08581 [Y1235D]; conditions: Compound concentration 1000.0 nM
[8] = target: Alpha-2A adrenergic receptor (Homo sapiens) (UniProt P08913); conditions: Compound concentration 10.0 uM
[9] = target: Mitogen-activated protein kinase 11 (Homo sapiens) (UniProt Q15759); conditions: Compound concentration 1000.0 nM
Mitogen-activated protein kinase 11 (Homo sapiens), sequence (Q15759 whole entry): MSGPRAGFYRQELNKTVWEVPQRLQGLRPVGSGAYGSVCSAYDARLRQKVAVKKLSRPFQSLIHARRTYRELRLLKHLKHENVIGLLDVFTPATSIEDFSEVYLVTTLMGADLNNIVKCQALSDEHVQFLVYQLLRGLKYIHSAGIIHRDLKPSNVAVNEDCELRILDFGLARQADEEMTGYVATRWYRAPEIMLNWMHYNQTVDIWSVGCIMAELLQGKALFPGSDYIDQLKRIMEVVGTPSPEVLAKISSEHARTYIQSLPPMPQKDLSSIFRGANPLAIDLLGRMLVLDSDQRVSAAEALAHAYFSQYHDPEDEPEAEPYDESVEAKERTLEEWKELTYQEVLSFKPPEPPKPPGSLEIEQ

[10] = target: Vascular endothelial growth factor receptor 3 (Homo sapiens) (UniProt P35916); conditions: Compound concentration 1000.0 nM
Vascular endothelial growth factor receptor 3 (Homo sapiens), sequence (P35916 whole entry): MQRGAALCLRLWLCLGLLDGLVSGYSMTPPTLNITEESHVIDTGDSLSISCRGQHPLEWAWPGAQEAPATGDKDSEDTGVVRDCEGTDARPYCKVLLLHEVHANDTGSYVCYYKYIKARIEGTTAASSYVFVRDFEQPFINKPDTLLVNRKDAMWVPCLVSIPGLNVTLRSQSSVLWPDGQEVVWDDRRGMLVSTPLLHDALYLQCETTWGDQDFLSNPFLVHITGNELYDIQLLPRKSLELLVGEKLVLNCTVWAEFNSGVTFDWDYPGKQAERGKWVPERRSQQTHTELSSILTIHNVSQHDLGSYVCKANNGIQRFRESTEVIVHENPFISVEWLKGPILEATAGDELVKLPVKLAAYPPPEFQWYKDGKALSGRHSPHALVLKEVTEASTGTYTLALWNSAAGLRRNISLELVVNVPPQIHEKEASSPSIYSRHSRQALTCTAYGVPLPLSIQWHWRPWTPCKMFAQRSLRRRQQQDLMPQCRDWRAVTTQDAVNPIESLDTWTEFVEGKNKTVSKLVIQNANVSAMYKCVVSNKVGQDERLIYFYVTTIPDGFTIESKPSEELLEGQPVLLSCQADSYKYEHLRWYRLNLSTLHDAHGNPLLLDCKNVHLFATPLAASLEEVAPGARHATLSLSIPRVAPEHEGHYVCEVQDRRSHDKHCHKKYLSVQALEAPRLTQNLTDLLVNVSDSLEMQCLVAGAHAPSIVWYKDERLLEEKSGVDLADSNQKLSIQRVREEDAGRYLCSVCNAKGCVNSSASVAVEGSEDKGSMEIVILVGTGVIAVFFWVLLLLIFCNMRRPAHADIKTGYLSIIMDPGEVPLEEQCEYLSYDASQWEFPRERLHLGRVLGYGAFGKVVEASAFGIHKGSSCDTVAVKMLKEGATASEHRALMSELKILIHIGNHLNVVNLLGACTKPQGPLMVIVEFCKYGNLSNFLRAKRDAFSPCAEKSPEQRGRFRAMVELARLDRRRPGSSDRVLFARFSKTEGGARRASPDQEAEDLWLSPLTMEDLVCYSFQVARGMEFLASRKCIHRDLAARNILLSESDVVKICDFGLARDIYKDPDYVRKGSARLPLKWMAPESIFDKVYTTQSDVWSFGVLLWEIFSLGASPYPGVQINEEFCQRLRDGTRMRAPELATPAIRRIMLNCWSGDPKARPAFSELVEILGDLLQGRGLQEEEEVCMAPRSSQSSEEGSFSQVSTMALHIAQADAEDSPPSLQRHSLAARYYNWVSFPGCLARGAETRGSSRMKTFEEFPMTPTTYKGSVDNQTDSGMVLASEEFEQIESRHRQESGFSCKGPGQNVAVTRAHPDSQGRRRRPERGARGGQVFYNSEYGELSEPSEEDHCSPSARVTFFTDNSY

[11] = target: Fibroblast growth factor receptor 1 (Homo sapiens) (UniProt P11362); conditions: Compound concentration 1000.0 nM
Fibroblast growth factor receptor 1 (Homo sapiens), sequence (P11362 22-822 limits assumed): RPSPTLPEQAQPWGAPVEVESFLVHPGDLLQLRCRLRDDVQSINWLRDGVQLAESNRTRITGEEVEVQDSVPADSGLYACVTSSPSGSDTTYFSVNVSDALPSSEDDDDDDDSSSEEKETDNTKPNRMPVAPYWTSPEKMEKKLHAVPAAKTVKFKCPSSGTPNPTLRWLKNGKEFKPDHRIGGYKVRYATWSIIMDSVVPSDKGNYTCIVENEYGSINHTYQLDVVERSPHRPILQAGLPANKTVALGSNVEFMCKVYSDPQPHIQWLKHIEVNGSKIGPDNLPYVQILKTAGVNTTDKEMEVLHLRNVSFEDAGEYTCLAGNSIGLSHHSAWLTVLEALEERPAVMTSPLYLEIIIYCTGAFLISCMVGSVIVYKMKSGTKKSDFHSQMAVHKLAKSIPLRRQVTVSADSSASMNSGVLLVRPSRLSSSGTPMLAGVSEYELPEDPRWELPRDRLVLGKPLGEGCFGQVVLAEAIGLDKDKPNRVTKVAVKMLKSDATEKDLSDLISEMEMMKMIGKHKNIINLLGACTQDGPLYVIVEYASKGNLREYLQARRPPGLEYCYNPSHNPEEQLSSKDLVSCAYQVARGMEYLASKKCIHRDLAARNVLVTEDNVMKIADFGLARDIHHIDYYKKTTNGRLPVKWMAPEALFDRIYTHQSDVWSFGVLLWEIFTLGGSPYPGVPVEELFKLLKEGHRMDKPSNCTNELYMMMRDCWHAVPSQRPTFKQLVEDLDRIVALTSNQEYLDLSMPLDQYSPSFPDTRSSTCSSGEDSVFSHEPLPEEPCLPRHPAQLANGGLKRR

[12] = target: Protein-tyrosine kinase 6 (Homo sapiens) (UniProt Q13882); conditions: Compound concentration 1000.0 nM
[13] = target: Phosphorylase b kinase gamma catalytic chain, skeletal muscle/heart isoform (Homo sapiens) (UniProt Q16816); conditions: Compound concentration 1000.0 nM
[14] = target: Serine/threonine-protein kinase BRSK2 (Homo sapiens) (UniProt Q8IWQ3); conditions: Compound concentration 1000.0 nM
Serine/threonine-protein kinase BRSK2 (Homo sapiens), sequence (Q8IWQ3 whole entry): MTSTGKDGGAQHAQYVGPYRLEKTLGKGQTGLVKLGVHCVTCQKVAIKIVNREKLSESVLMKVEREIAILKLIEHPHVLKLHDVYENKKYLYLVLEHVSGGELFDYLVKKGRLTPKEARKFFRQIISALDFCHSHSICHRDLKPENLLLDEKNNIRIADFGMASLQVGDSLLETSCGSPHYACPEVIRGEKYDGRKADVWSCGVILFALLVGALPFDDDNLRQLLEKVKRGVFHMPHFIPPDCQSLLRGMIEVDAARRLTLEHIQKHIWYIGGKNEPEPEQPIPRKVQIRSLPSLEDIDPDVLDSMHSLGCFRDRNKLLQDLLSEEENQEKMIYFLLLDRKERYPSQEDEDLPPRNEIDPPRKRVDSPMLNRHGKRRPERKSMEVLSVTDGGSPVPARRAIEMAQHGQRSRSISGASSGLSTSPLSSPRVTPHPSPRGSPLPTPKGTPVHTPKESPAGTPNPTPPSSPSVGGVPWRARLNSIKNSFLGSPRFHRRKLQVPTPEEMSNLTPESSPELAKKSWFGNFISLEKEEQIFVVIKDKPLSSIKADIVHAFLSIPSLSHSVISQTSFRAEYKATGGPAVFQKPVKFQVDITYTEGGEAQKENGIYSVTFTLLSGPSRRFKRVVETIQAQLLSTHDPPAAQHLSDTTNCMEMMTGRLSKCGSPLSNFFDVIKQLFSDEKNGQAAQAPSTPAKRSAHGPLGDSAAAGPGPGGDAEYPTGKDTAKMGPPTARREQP

[15] = target: Serine/threonine-protein kinase 26 (Homo sapiens) (UniProt Q9P289); conditions: Compound concentration 1000.0 nM
[16] = target: Receptor tyrosine-protein kinase erbB-3 (Homo sapiens) (UniProt P21860); conditions: Compound concentration 1000.0 nM
[17] = target: Phosphatidylinositol 4,5-bisphosphate 3-kinase catalytic subunit gamma isoform (Homo sapiens) (UniProt P48736); conditions: Compound concentration 1000.0 nM
[18] = target: Macrophage colony-stimulating factor 1 receptor (Homo sapiens) (UniProt P07333); conditions: Compound concentration 1000.0 nM
[19] = target: Citron Rho-interacting kinase (Homo sapiens) (UniProt O14578); conditions: Compound concentration 1000.0 nM
[20] = target: Calcium/calmodulin-dependent protein kinase type 1 (Homo sapiens) (UniProt Q14012); conditions: Compound concentration 1000.0 nM
[21] = target: Serine/threonine-protein kinase RIO2 (Homo sapiens) (UniProt Q9BVS4); conditions: Compound concentration 1000.0 nM
[22] = target: Phosphatidylinositol 5-phosphate 4-kinase type-2 beta (Homo sapiens) (UniProt P78356); conditions: Compound concentration 1000.0 nM
Phosphatidylinositol 5-phosphate 4-kinase type-2 beta (Homo sapiens), sequence (P78356 whole entry): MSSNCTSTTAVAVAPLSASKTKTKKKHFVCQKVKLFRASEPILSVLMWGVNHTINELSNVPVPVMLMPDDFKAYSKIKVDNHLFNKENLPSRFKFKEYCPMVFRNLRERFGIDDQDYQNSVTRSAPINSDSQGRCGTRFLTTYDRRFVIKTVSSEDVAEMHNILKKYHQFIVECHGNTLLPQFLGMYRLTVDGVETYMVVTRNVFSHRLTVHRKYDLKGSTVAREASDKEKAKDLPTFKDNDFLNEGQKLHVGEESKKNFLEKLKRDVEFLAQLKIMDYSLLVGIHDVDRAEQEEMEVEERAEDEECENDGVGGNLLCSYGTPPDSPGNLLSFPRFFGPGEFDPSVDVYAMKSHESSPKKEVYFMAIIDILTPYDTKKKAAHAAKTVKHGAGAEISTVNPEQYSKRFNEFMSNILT

[23] = target: Tyrosine-protein kinase Fgr (Homo sapiens) (UniProt P09769); conditions: Compound concentration 1000.0 nM
Tyrosine-protein kinase Fgr (Homo sapiens), sequence (P09769 2-529 limits assumed): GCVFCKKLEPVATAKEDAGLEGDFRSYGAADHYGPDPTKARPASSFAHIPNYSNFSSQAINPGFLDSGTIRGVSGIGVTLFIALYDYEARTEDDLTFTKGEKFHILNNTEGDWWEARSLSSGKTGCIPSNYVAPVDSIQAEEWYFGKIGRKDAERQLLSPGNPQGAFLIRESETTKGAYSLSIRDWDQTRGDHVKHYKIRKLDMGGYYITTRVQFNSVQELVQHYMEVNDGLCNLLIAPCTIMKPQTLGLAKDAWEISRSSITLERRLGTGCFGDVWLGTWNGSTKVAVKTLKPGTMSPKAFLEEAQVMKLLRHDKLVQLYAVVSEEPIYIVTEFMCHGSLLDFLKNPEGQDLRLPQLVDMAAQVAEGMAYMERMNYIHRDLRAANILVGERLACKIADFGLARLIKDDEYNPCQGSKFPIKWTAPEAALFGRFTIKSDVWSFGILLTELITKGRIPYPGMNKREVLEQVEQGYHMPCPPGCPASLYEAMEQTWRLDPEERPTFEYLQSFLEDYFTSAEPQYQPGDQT

[24] = target: Serine/threonine-protein kinase WNK2 (Homo sapiens) (UniProt Q9Y3S1); conditions: Compound concentration 1000.0 nM
[25] = target: SRSF protein kinase 1 (Homo sapiens) (UniProt Q96SB4); conditions: Compound concentration 1000.0 nM
[26] = target: Non-receptor tyrosine-protein kinase TNK1 (Homo sapiens) (UniProt Q13470); conditions: Compound concentration 1000.0 nM
[27] = target: BMP-2-inducible protein kinase (Homo sapiens) (UniProt Q9NSY1); conditions: Compound concentration 1000.0 nM
[28] = target: Serine/threonine-protein kinase PLK4 (Homo sapiens) (UniProt O00444); conditions: Compound concentration 1000.0 nM
[29] = target: D(1B) dopamine receptor (Homo sapiens) (UniProt P21918); conditions: Compound concentration 10.0 uM
[30] = target: Serine/threonine-protein kinase Sgk2 (Homo sapiens) (UniProt Q9HBY8); conditions: Compound concentration 1000.0 nM
Serine/threonine-protein kinase Sgk2 (Homo sapiens), sequence (Q9HBY8 whole entry): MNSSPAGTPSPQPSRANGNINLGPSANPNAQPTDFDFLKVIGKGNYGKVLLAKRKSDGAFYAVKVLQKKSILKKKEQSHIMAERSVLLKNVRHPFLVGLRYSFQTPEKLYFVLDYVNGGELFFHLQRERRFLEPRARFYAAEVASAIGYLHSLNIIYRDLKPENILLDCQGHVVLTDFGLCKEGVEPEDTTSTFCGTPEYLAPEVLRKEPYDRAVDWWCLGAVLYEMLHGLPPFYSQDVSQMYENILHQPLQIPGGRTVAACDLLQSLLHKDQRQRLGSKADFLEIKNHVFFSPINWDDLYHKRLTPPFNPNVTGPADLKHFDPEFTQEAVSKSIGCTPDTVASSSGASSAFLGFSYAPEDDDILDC

[31] = target: 5-hydroxytryptamine receptor 3A (Homo sapiens) (UniProt P46098); conditions: Compound concentration 10.0 uM
[32] = tested on: Mast/stem cell growth factor receptor Kit (Homo sapiens), P10721 [D816H]; conditions: Compound concentration 1000.0 nM
[33] = target: Serine/threonine-protein kinase N1 (Homo sapiens) (UniProt Q16512); conditions: Compound concentration 1000.0 nM
[34] = target: Alpha-2B adrenergic receptor (Homo sapiens) (UniProt P18089); conditions: Compound concentration 10.0 uM
Alpha-2B adrenergic receptor (Homo sapiens), sequence (P18089 whole entry, the tested form may be a part): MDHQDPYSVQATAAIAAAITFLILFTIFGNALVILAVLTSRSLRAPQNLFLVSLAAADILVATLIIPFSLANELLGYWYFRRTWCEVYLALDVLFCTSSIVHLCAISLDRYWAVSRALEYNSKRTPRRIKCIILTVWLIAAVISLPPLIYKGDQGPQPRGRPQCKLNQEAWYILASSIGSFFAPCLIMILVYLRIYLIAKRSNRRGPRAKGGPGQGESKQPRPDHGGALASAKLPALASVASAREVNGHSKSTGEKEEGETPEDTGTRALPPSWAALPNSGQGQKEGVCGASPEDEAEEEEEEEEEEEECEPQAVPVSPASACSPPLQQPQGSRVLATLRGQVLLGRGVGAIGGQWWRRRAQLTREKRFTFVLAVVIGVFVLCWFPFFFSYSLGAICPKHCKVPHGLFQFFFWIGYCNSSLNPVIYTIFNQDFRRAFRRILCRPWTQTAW

[35] = target: LIM domain kinase 2 (Homo sapiens) (UniProt P53671); conditions: Compound concentration 1000.0 nM
[36] = target: Cyclin-dependent kinase 15 (Homo sapiens) (UniProt Q96Q40); conditions: Compound concentration 1000.0 nM
[37] = target: Uncharacterized serine/threonine-protein kinase SBK3 (Homo sapiens) (UniProt P0C264); conditions: Compound concentration 1000.0 nM
[38] = target: Ephrin type-B receptor 2 (Homo sapiens) (UniProt P29323); conditions: Compound concentration 1000.0 nM
[39] = target: Tyrosine-protein kinase Lyn (Homo sapiens) (UniProt P07948); conditions: Compound concentration 1000.0 nM
[40] = target: 5-hydroxytryptamine receptor 6 (Homo sapiens) (UniProt P50406); conditions: Compound concentration 10.0 uM
[41] = target: Serine/threonine-protein kinase 3 (Homo sapiens) (UniProt Q13188); conditions: Compound concentration 1000.0 nM
[42] = target: Membrane-associated tyrosine- and threonine-specific cdc2-inhibitory kinase (Homo sapiens) (UniProt Q99640); conditions: Compound concentration 1000.0 nM
[43] = target: Cyclin-dependent kinase 8 (Homo sapiens) (UniProt P49336); conditions: Compound concentration 1000.0 nM
[44] = target: Serine/threonine-protein kinase SBK1 (Homo sapiens) (UniProt Q52WX2); conditions: Compound concentration 1000.0 nM
[45] = target: Phosphatidylinositol 4,5-bisphosphate 3-kinase catalytic subunit beta isoform (Homo sapiens) (UniProt P42338); conditions: Compound concentration 1000.0 nM

CC(=O)C1=C(C)N(c2cccc(C(F)(F)F)c2)C(=O)N[C@@H]1c1ccc(C#N)nc1 [BAY-678]
inactive: residual activity [1] 92.5% | residual activity [2] 100% | residual activity [3] 80.1% | residual activity [4] 85% | residual activity [5] 100% | residual activity [6] 100% | residual activity [7] 100% | inhibition [8] 10.5% | residual activity [9] 100% | residual activity [10] 100% | residual activity [11] 100% | residual activity [12] 100% | residual activity [13] 100% | residual activity [14] 100% | residual activity [15] 100% | residual activity [16] 100% | residual activity [17] 100% | residual activity [18] 100% | residual activity [19] 77.6% | residual activity [20] 86.7% | residual activity [21] 98% | residual activity [22] 52.8% | residual activity [23] 86.7% | residual activity [24] 94% | residual activity [25] 67.5% | residual activity [26] 62.1% | residual activity [27] 100% | residual activity [28] 82.7% | inhibition [29] 0.739% | residual activity [30] 100% | inhibition [31] -7.63% | residual activity [32] 100% | residual activity [33] 71.1% | inhibition [34] -1.73% | residual activity [35] 91.7% | residual activity [36] 100% | residual activity [37] 100% | residual activity [38] 100% | residual activity [39] 100% | inhibition [40] -6.02% | residual activity [41] 93.1% | residual activity [42] 90.6% | residual activity [43] 65.3% | residual activity [44] 100% | residual activity [45] 100%
